This is an account of results in ChEMBL document CHEMBL2413019, “Structure-activity-relationship studies on dihydrofuran-fused perhydrophenanthrenes as an anti-Alzheimer's disease agent” (Bioorg Med Chem, 2013).

Data set [1] in a line: Cytotoxicity against Sprague-Dawley rat cortical neurons assessed as cell viability after 48 hrs by CellTiter-Glo luminescent assay. As to conditions: cortical neurone.
Data set [2] has as its system Cortical neurone. Kind of data set: Antialzheimer activity in amyloid beta (25 to 35)-treated Sprague-Dawley rat cortical neurons assessed as dendrite extension activity at 1 uM after 4 days by fluorescence microscopic analysis. The format is functional.
Data set [3] relates to Cortical neurone. Nature of the data set: Antialzheimer activity in amyloid beta (25 to 35)-treated Sprague-Dawley rat cortical neurons assessed as dendrite extension activity at 10 uM after 4 days by fluorescence microscopic analysis. The format is functional.
Data set [4] can be described thus: Cytotoxicity against Sprague-Dawley rat cortical neurons assessed as cell viability at 1 to 10 uM after 48 hrs by CellTiter-Glo luminescent assay. To be noted: cortical neurone.

Activity calls are given as the source filed them. The rule behind the calls is not given here.

For `N#C[C@]12CC=CC3=CO[C@H](Cc4ccc(O)cc41)[C@@H]32`, the Activity entry in data set [1] is given as “Dose-dependent effect”.

On to `N#C[C@]12CCC3(OCCO3)C3=CO[C@H](Cc4cc(Sc5ccccc5)c(O)cc41)[C@@H]32`, for which the result in the data set on Cortical neurone [2] was Active. On the same count and under the same terms, the same measure for `N#C[C@]12CCC3(OCCO3)[C@@H]3CO[C@H](Cc4ccc(O)cc41)[C@@H]32`: “Active”. In the case of `N#C[C@]12CC=CC3=CO[C@H](Cc4cc(-c5ccccc5)c(O)cc41)[C@@H]32`, the Activity entry in data set [1] is recorded as “Dose-dependent effect”.

Regarding `Oc1ccc2c(c1)[C@@H]1CCC3(OCCO3)C3=CO[C@H](C2)[C@@H]31`, in the data set with Cortical neurone [2], the result was inactive. On to `N#C[C@]12CCC3(OCCO3)C3=CO[C@H](Cc4cc(C#CCCO)c(O)cc41)[C@@H]32`, for which the Activity entry in data set [1] was “Dose-dependent effect”. Consider `N#C[C@]12CC[C@H](O)[C@@H]3CO[C@H](Cc4ccc(O)cc41)[C@@H]32`, for which, in data set [1], the Activity result is listed as “Dose-dependent effect”. For `N#C[C@]12CC[C@H](O)C3=CO[C@H](Cc4ccc(O)cc41)[C@@H]32`, the Activity result in data set [1] is listed as “Dose-dependent effect”. As for `C#Cc1cc2c(cc1O)[C@]1(C#N)CCC3(OCCO3)C3=CO[C@H](C2)[C@@H]31`, in data set [1], the Activity result was “Dose-dependent effect”. For the same molecule, in the data set on Cortical neurone [2], the outcome was inactive. In addition, in the data set with Cortical neurone [3], the result was Active. `CCOc1cc2c(cc1O)[C@]1(C#N)CCC3(OCCO3)C3=CO[C@H](C2)[C@@H]31`: in the data set on Cortical neurone [2], the outcome was Active. In the case of `N#C[C@]12CCC3(OCCO3)C3=CO[C@H](Cc4cc(I)c(O)cc41)[C@@H]32`, the Activity entry in data set [1] is on record as “Dose-dependent effect”. For the molecule `N#C[C@]12CCC3(OCCO3)C3=CO[C@H](Cc4cc(-c5ccccc5)c(O)cc41)[C@@H]32`, in data set [1], the Activity result is reported as “Dose-dependent effect”.

Consider `C#Cc1cc2c(cc1O)[C@]1(C#N)CC=CC3=CO[C@H](C2)[C@@H]31`, for which the Activity entry in data set [1] is given as “Dose-dependent effect”. The result in the data set with Cortical neurone [2] was inactive. In addition, the result in the data set on Cortical neurone [3] was Active.

For the molecule `N#C[C@]12CCC3(OCCO3)C3=CO[C@H](Cc4ccc(O)cc41)[C@@H]32`, the Activity result in data set [4] is on record as “Non-toxic”. For the molecule `N#C[C@]12CC=CC3=CO[C@H](Cc4cc(C#CCCO)c(O)cc41)[C@@H]32`, the Activity entry in data set [1] is given as “Dose-dependent effect”. In addition, the outcome with Cortical neurone [2] was Active. For the same molecule, the outcome in the data set on Cortical neurone [3] was inactive. As to `N#C[C@]12CCC3(OCCO3)C3=CO[C@H](Cc4cc(O)c(O)cc41)[C@@H]32`, the outcome in the data set with Cortical neurone [2] was inactive.

Consider `CCCCCCCCC/C=C/c1cc2c(cc1O)[C@]1(C#N)CCC3(OCCO3)C3=CO[C@H](C2)[C@@H]31`, for which the Activity entry in data set [1] was “Dose-dependent effect”. Further, the result with Cortical neurone [2] was Active. In addition, in the data set on Cortical neurone [3], the result was inactive. In the case of `N#C[C@]12CCC[C@@H]3CO[C@H](Cc4ccc(O)cc41)[C@@H]32`, the Activity result in data set [1] was “Dose-dependent effect”. Besides, in the data set on Cortical neurone [2], the result was inactive. In addition, in the data set on Cortical neurone [3], the outcome was Active.
